Data set [1] can be described thus: SAM uptake in mouse brain after oral administration (HPLC and tritiated SAM scintillation count). It is filed as in vivo. The conditions noted are these: mice, 800 μg tritiated SAM; total and cleared lysates higher. The procedure: (§1) For the mice, 400 μg/day of SAM was administered orally by feeding probe needle, and the animals were sacrificed after 2 months; the animals were fed on a complete diet or a vitamin B-deprived diet, according to trial design. SAM levels were analysed by HPLC with a Varian HPLC system. The cells and homogenised brains were lysed in distilled water, and the macromolecules were precipitated with 1.5 M PCA. Standard SAM curves were calculated before and after the experimental samples. For the analysis of tritiated SAM, cells were treated as described above, while mice were treated for 4 days to minimise exposure to the radioactive drug. The cells and homogenised brains were lysed in distilled water. A portion of lysed brains was sonicated and centrifuged to separate membranes and cell organelles; another portion was treated with perchloric acid (PCA) after sonication to separate the macromolecules. The uptake of radioactive SAM was measured by scintillation with a beta counter.
A portion of the total brain lysates was also sonicated and centrifuged to obtain a cleared lysate (cytoplasm), and a further portion of this cleared lysate was precipitated with perchloric acid (PCA) to eliminate the proteins (soluble lysate).

Data set [2] has as its system PS1. Nature of the data set: Preliminary experiments: PS1 expression in SK-N-SH neuroblastoma line in vitamin B-deprived medium. Particulars: medium deprived of folate, vitamin B12 and vitamin B6, SAM at various concentrations, published. It is filed as cell-based. The procedure: (§2) Preliminary experiments have been performed on a neuroblastoma line (SK-N-SH) which expresses APP, PS1, PS2, BACE, alpha-secretase, the other components of gamma-secretase, and Notchl. The cultures were treated with a culture medium deprived of folate, vitamin B12 and vitamin B6 (in order to alter the metabolism of homocysteine), to which SAM was added at various concentrations (to balance the effects of vitamin deprivation). […] In experiments conducted with HpaII/PCR on APP and PS1 promoters, we found a major difference in the methylation of one of the CpG sites of the PS1 promoter. We concluded that the PS1 gene can be partly silenced by administration of exogenous SAM. The administration of SAM can reduce PS1 expression, restoring the metabolic balance in favour of alpha-secretase. Experiments have also been conducted with transgenic mice of the strain TgCRND8, and corresponding controls; these mice are characterised by the presence of the human mutated APP gene, and can therefore develop amyloid plaques in a short time. These animals were fed on a complete diet or a diet lacking in the vitamins of the B group; once again, as in the cells, an increase in PS1 and BACE expression was observed.

Data set [3] relates to PS1. The experiment in a line: PS1 gene expression in brains of mice on a vitamin B-deprived diet (real-time PCR). It is filed as in vivo. The conditions noted are these: TgCRND8 mice and wild-type controls, SAM 400 μg/day, brain cDNA normalised to β-actin, FIG. 1, even lower than control diet. The procedure:
(§3) In particular, the effect of SAM was tested at pharmacological concentrations (400 μg/day) on TgCRND8 mice and the corresponding wild-type controls.
(§4) RNA was extracted from cell cultures and homogenised brains, and cDNA was synthesised. 0.5 μg of total cDNA was used for each real-time reaction on an Opticon2 DNA Engine (MJ Research) using SYBR-Green reagents. The amplification efficiency for each pair of primers was previously determined by amplification of a standard linear curve. The experimental samples were compared with a standard curve of a specific gene to determine the quantity of specific cDNA present in the standard reaction. The standards were obtained from highly purified PCR products amplified by positive controls. The total cDNA levels were normalised to the β-actin control (gene housekeeping).
(In qPCR the cycle at which signal appears reflects the starting amount.)

Data set [4] deals with SK-N-BE cell cultures. The experiment in a line: SAM uptake in cell cultures (HPLC and tritiated SAM scintillation count). The format is in vitro ADME, human. Particulars: 100 μM SAM in F14 medium, 96 hours, HPLC; control 1. The procedure: For the cell cultures, 100 μM of SAM was added to the F14 cell culture medium (complete or deprived of vitamin B, according to trial design) and the cultures were stopped after 96 hours.
as §1, with “A portion of lysed brains was sonicated and centrifuged to separate membranes and cell organelles; another portion was treated with perchloric acid (PCA) after sonication to separate the macromolecules.” left out
To establish whether the increase was due to uptake of exogenous SAM as opposed to an increase in the endogenous reserves in the presence of elevated extracellular concentrations of the molecule, a test was performed with radioactive SAM. 100 μM of tritiated SAM (SAM[3H]) was added to SK-N-BE cell cultures, and the uptake was evaluated by cell lysis and radioactivity count.

Data set [5] deals with BACE. The experiment in a line: Preliminary experiments: BACE expression in SK-N-SH neuroblastoma line in vitamin B-deprived medium. The conditions noted are these: medium deprived of folate, vitamin B12 and vitamin B6, SAM at various concentrations, published. It is filed as cell-based. The procedure: as §2
Data set [6] has as its system BACE. The experiment in a line: BACE gene expression in brains of mice on a vitamin B-deprived diet (real-time PCR). The format is in vivo. The conditions noted are these: TgCRND8 mice and wild-type controls, SAM 400 μg/day, brain cDNA normalised to β-actin, FIG. 1, even lower than control diet. The procedure: as §3, §4
The test system of data set [7] is BACE. Nature of the data set: BACE gene expression in vitamin-deprived SK-N-BE neuroblastoma cells (real-time PCR). The format is cell-based, human. Particulars: FIG. 2, SOD and GSH to a lesser extent than SAM. The procedure:
as §4
(§5) As homocysteine metabolism is involved in both methylation and oxidoreduction reactions, we tested the effect of various antioxidants on the expression of the two genes.

Data set [8] concerns PS1. The experiment in a line: PS1 gene expression in vitamin-deprived SK-N-BE neuroblastoma cells (real-time PCR). It is filed as cell-based, human. Particulars: FIG. 2, SOD and GSH to a lesser extent than SAM. The procedure:
as §4, §5

Turning to `C[S+](CC[C@H](N)C(=O)O)C[C@H]1O[C@@H](n2cnc3c(N)ncnc32)[C@H](O)[C@@H]1O` (some centres unmarked) [SAM, S-adenosylmethionine], the “radioactivity level of soluble brain lysate (PCA-precipitated cleared lysate), as SAM” value in data set [1] is on record as ~0.5 ng. Also, the “PS1 expression after the administration of SAM” value in data set [2] is reported as “marked reduction”. Besides, the “overexpression of PS1 induced by a deprived diet in vivo” value in data set [3] is “reverses the overexpression”. For the same molecule, the “intracellular levels of SAM” value in data set [4] was 2.5 to 3 µM. Also, the “BACE expression after the administration of SAM” value in data set [5] is “marked reduction”. For the same molecule, the “overexpression of BACE induced by a deprived diet in vivo” value in data set [6] was “reverses the overexpression”.

B1: SOD: enzyme superoxide dismutase, obtained by fermentation from strains of Saccharomyces cerevisiae (protein, UniProt P00445 2-154, looked up)
Superoxide dismutase [Cu-Zn]: VQAVAVLKGDAGVSGVVKFEQASESEPTTVSYEIAGNSPNAERGFHIHEFGDATNGCVSAGPHFNPFKKTHGAPTDEVRHVGDMGNVKTDENGVAKGSFKDSLIKLIGPTSVVGRSVVIHAGQDDLGKGDTEESLKTGNAGPRPACGVIGLTN
For the molecule B1, the “overexpression of BACE induced by vitamin deprivation” value in data set [7] was “inhibit overexpression”. In data set [8], the “overexpression of PS1 induced by vitamin deprivation” value is on record as “inhibit overexpression”.

These data come from patent US8778337B2, “Use of S-adenosylmethionine (SAM) and superoxide dismutase (SOD) for the preparation of medicaments for the treatment of alzheimer's disease” (Gnosis S.p.A., priority 2008, dated 2014).
